Measurements as given in patent US5461054A, “Anthracene-spiro-pyrrolindines” (Bayer Aktiengesellschaft, priority 1993, dated 1995).

Test system: monocyte-free human T cells
Assay: Inhibition of 5-HT-dependent T Cell Proliferation
Assay type: cell-based
Details: PWM (1:200) and 5-HT (100 μm), 7 days, 3H-thymidine incorporation, 33 μM-0.1 μM
Excerpt: The in vitro activity of the compounds according to the invention results from their capability to inhibit T cell proliferation, which is previously stimulated by serotonin.
Inhibition of 5-HT-dependent T Cell Proliferation
Peripheral mononuclear blood cells (PBMC) are obtained from the buffy coat of the blood of healthy subjects. After isolation by means of isolymph gradients (Pharmacia), the PBMC are washed twice and used directly. Purified T cells are obtained by E rosette formation with sheep erythrocytes [cf. Blue, M. L., J. F. Daley, H. Levine, K. A. Craig and S. F. Schlossmann, 1986, Biosynthesis and surface expression of T8 by peripheral blood T4+ cells in vitro, J. Immunol. 137, 1202]. Monocytes are partially removed by adhesion to tissue culture plates or flasks. […] The cultures are treated with 1 μCi of ^3 H-thymidine for 6 h on the 7th day and collected on filter paper, and the incorporated radioactivity is determined by means of liquid scintillation counting.
The test substances are dissolved in 10 mM HCl in order to achieve a final concentration of 1 mM in each case. […] The inhibitory activity of the test substances is expressed as the IC50 in μM. […]

Compound	IC50 [µM]
O=C1CC2(CC3c4ccccc4C2c2ccccc23)C(=O)N1CCCN1CCN(c2ccc(F)cc2)CC1 (centres unmarked) [Example 1, 1'-{3-[4-(4-Fluorophenyl)-piperazin-1-yl]-propyl}-9,10-dihydro-9,10-ethano-anthracene-11-spiro-3'-pyrrolidine-2',5'-dione]	2
O=C1CC2(CC3c4ccccc4C2c2ccccc23)C(=O)N1CCCN1CCN(c2ccccc2)CC1 (centres unmarked) [Example 2]	5
